Patent US20260132164A1, “PNU ANTHRACYCLINE DERIVATIVES AND METHODS OF USE THEREOF” (Merck Sharp & Dohme LLC, priority 2022, published 2026)

test system: BxPC3; test: CellTiter-Glo 2.0 Cytotoxicity Assay; type: cell-based; settings: CellTiter-Glo 2.0 luminescence; compound added day 1, read on day 4 or 5; 3000 cells/well

SMILES | EC50 [nM]
COc1cccc2c1C(=O)c1c(O)c3c(c(O)c1C2=O)C[C@@](O)(C(=O)NCC1CC(=O)NC1=O)C[C@@H]3O[C@H]1C[C@H]2[C@H](O[C@@H]3[C@@H](OC)OCCN32)[C@H](C)O1 (some centres unmarked) [Compound 87] | 0.12
COc1cccc2c1C(=O)c1c(O)c3c(c(O)c1C2=O)C[C@@](O)(C(=O)NCC1CC(=O)NC1=O)C[C@@H]3O[C@H]1C[C@H]2[C@H](O[C@@H]3[C@@H](OC)OCCN32)[C@H](C)O1 (some centres unmarked) [Compound 88] | 0.27

same assay, conditions: Homo sapiens, BXPC-3, CellTiter-Glo 2.0 luminescence; compound added day 1, read on day 4 or 5; 3000 cells/well

SMILES | EC50 [nM]
COc1cccc2c1C(=O)c1c(O)c3c(c(O)c1C2=O)C[C@@](O)(C(=O)NC12CC(NC(=O)CO)(C1)C2)C[C@@H]3O[C@H]1C[C@H]2[C@H](O[C@@H]3[C@@H](OC)OCCN32)[C@H](C)O1 [Compound 60] | 0.55
COc1cccc2c1C(=O)c1c(O)c3c(c(O)c1C2=O)C[C@@](O)(C(=O)NCC(C)(C)N)C[C@@H]3O[C@H]1C[C@H]2[C@H](O[C@@H]3[C@@H](OC)OCCN32)[C@H](C)O1 [Compound 61, (2S,4S)—N-(2-amino-2-methylpropyl)-2,5,12-trihydroxy-7-methoxy-4-(((1S,3R,4aS,9S,9aR,10aS)-9-methoxy-1-methyloctahydro-1H-pyrano[4′,3′:4,5]oxazolo[2,3-c][1,4]oxazin-3-yl)oxy)-6,11-dioxo-1,2,3,4,6,11-hexahydrotetracene-2-carboxamide] | 8.7
COc1cccc2c1C(=O)c1c(O)c3c(c(O)c1C2=O)C[C@@](O)(C(=O)NCCN1C(=O)CNC1=O)C[C@@H]3O[C@H]1C[C@H]2[C@H](O[C@@H]3[C@@H](OC)OCCN32)[C@H](C)O1 [Compound 62] | 0.19
COc1cccc2c1C(=O)c1c(O)c3c(c(O)c1C2=O)C[C@@](O)(C(=O)NCCN1CCNC1=O)C[C@@H]3O[C@H]1C[C@H]2[C@H](O[C@@H]3[C@@H](OC)OCCN32)[C@H](C)O1 [Compound 63] | 0.14
COc1cccc2c1C(=O)c1c(O)c3c(c(O)c1C2=O)C[C@@](O)(C(=O)NCC1(N)CC1)C[C@@H]3O[C@H]1C[C@H]2[C@H](O[C@@H]3[C@@H](OC)OCCN32)[C@H](C)O1 [Compound 64] | 0.49
COc1cccc2c1C(=O)c1c(O)c3c(c(O)c1C2=O)C[C@@](O)(C(=O)NCC(N)C(F)(F)F)C[C@@H]3O[C@H]1C[C@H]2[C@H](O[C@@H]3[C@@H](OC)OCCN32)[C@H](C)O1 (some centres unmarked) [Compound 65] | 0.16
COc1cccc2c1C(=O)c1c(O)c3c(c(O)c1C2=O)C[C@@](O)(C(=O)N1CCNCC1)C[C@@H]3O[C@H]1C[C@H]2[C@H](O[C@@H]3[C@@H](OC)OCCN32)[C@H](C)O1 [Compound 68] | 8.1
COc1cccc2c1C(=O)c1c(O)c3c(c(O)c1C2=O)C[C@@](O)(C(=O)NCC(N)C(F)F)C[C@@H]3O[C@H]1C[C@H]2[C@H](O[C@@H]3[C@@H](OC)OCCN32)[C@H](C)O1 (some centres unmarked) [Compound 69] | 0.16
COc1cccc2c1C(=O)c1c(O)c3c(c(O)c1C2=O)C[C@@](O)(C(=O)NCc1cnc(N)o1)C[C@@H]3O[C@H]1C[C@H]2[C@H](O[C@@H]3[C@@H](OC)OCCN32)[C@H](C)O1 [Compound 70] | 0.095
COc1cccc2c1C(=O)c1c(O)c3c(c(O)c1C2=O)C[C@@](O)(C(=O)N[C@@H]1CCC[C@H]1N)C[C@@H]3O[C@H]1C[C@H]2[C@H](O[C@@H]3[C@@H](OC)OCCN32)[C@H](C)O1 [Compound 71] | 8.4
COc1cccc2c1C(=O)c1c(O)c3c(c(O)c1C2=O)C[C@@](O)(C(=O)NCc1ccc(N)nc1)C[C@@H]3O[C@H]1C[C@H]2[C@H](O[C@@H]3[C@@H](OC)OCCN32)[C@H](C)O1 [Compound 72] | 0.08
COc1cccc2c1C(=O)c1c(O)c3c(c(O)c1C2=O)C[C@@](O)(C(=O)NCCC(N)C(F)(F)F)C[C@@H]3O[C@H]1C[C@H]2[C@H](O[C@@H]3[C@@H](OC)OCCN32)[C@H](C)O1 (some centres unmarked) [Compound 73] | 0.2
COc1cccc2c1C(=O)c1c(O)c3c(c(O)c1C2=O)C[C@@](O)(C(=O)NCCC(N)C(F)F)C[C@@H]3O[C@H]1C[C@H]2[C@H](O[C@@H]3[C@@H](OC)OCCN32)[C@H](C)O1 (some centres unmarked) [Compound 74] | 0.2
COc1cccc2c1C(=O)c1c(O)c3c(c(O)c1C2=O)C[C@@](O)(C(=O)N1C[C@H]2CN[C@H]2C1)C[C@@H]3O[C@H]1C[C@H]2[C@H](O[C@@H]3[C@@H](OC)OCCN32)[C@H](C)O1 [Compound 75] | 2.9
COc1cccc2c1C(=O)c1c(O)c3c(c(O)c1C2=O)C[C@@](O)(C(=O)N1C[C@@H]2CN[C@@H]2C1)C[C@@H]3O[C@H]1C[C@H]2[C@H](O[C@@H]3[C@@H](OC)OCCN32)[C@H](C)O1 [Compound 76] | 15
COc1cccc2c1C(=O)c1c(O)c3c(c(O)c1C2=O)C[C@@](O)(C(=O)Nc1ccc(N)cc1)C[C@@H]3O[C@H]1C[C@H]2[C@H](O[C@@H]3[C@@H](OC)OCCN32)[C@H](C)O1 [Compound 77] | 0.11
COc1cccc2c1C(=O)c1c(O)c3c(c(O)c1C2=O)C[C@@](O)(C(=O)NCc1ccc(O)cc1)C[C@@H]3O[C@H]1C[C@H]2[C@H](O[C@@H]3[C@@H](OC)OCCN32)[C@H](C)O1 [Compound 78] | 0.056
COc1cccc2c1C(=O)c1c(O)c3c(c(O)c1C2=O)C[C@@](O)(C(=O)NCc1ccccc1N)C[C@@H]3O[C@H]1C[C@H]2[C@H](O[C@@H]3[C@@H](OC)OCCN32)[C@H](C)O1 [Compound 79] | 0.15
COc1cccc2c1C(=O)c1c(O)c3c(c(O)c1C2=O)C[C@@](O)(C(=O)N[C@H]1CCC[C@@H]1N)C[C@@H]3O[C@H]1C[C@H]2[C@H](O[C@@H]3[C@@H](OC)OCCN32)[C@H](C)O1 [Compound 80] | 14.1
COc1cccc2c1C(=O)c1c(O)c3c(c(O)c1C2=O)C[C@@](O)(C(=O)Nc1cc(N)n(C)n1)C[C@@H]3O[C@H]1C[C@H]2[C@H](O[C@@H]3[C@@H](OC)OCCN32)[C@H](C)O1 [Compound 81] | 0.4
COc1cccc2c1C(=O)c1c(O)c3c(c(O)c1C2=O)C[C@@](O)(C(=O)NCc1nc(N)cn1C)C[C@@H]3O[C@H]1C[C@H]2[C@H](O[C@@H]3[C@@H](OC)OCCN32)[C@H](C)O1 [Compound 82] | 0.26
COc1cccc2c1C(=O)c1c(O)c3c(c(O)c1C2=O)C[C@@](O)(C(=O)Nc1ccc(CN)cc1)C[C@@H]3O[C@H]1C[C@H]2[C@H](O[C@@H]3[C@@H](OC)OCCN32)[C@H](C)O1 [Compound 83] | 11
COc1cccc2c1C(=O)c1c(O)c3c(c(O)c1C2=O)C[C@@](O)(C(=O)NCC12CC(N)(C1)C2)C[C@@H]3O[C@H]1C[C@H]2[C@H](O[C@@H]3[C@@H](OC)OCCN32)[C@H](C)O1 [Compound 84] | 0.61
COc1cccc2c1C(=O)c1c(O)c3c(c(O)c1C2=O)C[C@@](O)(C(=O)NC[C@H]1CNC(=O)C1)C[C@@H]3O[C@H]1C[C@H]2[C@H](O[C@@H]3[C@@H](OC)OCCN32)[C@H](C)O1 [Compound 85] | 0.4
COc1cccc2c1C(=O)c1c(O)c3c(c(O)c1C2=O)C[C@@](O)(C(=O)NC[C@@H]1CNC(=O)C1)C[C@@H]3O[C@H]1C[C@H]2[C@H](O[C@@H]3[C@@H](OC)OCCN32)[C@H](C)O1 [Compound 86] | 0.39
COc1cccc2c1C(=O)c1c(O)c3c(c(O)c1C2=O)C[C@@](O)(C(=O)NCCO)C[C@@H]3O[C@H]1C[C@H]2[C@H](O[C@@H]3[C@@H](OC)OCCN32)[C@H](C)O1 [Compound 89] | 0.37
COc1cccc2c1C(=O)c1c(O)c3c(c(O)c1C2=O)C[C@@](O)(C(=O)NC12CC(O)(C1)C2)C[C@@H]3O[C@H]1C[C@H]2[C@H](O[C@@H]3[C@@H](OC)OCCN32)[C@H](C)O1 [Compound 90] | 0.23
